Source: PubChem BioAssay AID2060501 (Molecular Pharmacology Branch, DTP, NCI, 2025)

System: 282377-053-R-J1-PDC complex spheroids, viability
Assay: Anticancer human tumor 282377-053-R-J1-PDC patient-derived colon adenocarcinoma cell line growth inhibition [GQUAD]
Conditions: for IC50: curve of first compound; for viability, T/C: stronger effect = lower value
Text: DNA G-quadruplex Stabilizer Agents in Combinations in Complex Spheroids
A high-throughput screen of multi-cell type tumor spheroids was designed to identify active combinations of DNA G-quadruplex stabilizer agents and targeted small molecules. Complex spheroids include a stromal component modeled by human endothelial cells (HUVEC) and fibroblasts modeled by human mesenchymal stem cells (MSCs). The concentration ranges selected for each drug and investigational agent were based upon clinically achievable concentrations if the clinical Cmax of the agent was known.
Compounds. The drugs and investigational agents: pidnarulex (CX-5461; NSC782164), APTO-253 (NSC789042), BRACO-19 (NSC847499), peposertib (NSC802822), ceralasertib (NSC780249), elimusertib (NSC800525), camonsertib (NSC841442), AZD-1390 (NSC803789), olaparib (NSC753686), talazoparib (NSC767125), ART-558 (NSC835418), sotorasib (NSC818433), MRTX-1133 (NSC836407), SN-38 (NSC673596), topotecan (NSC609699), etoposide (NSC141540), doxorubicin (NSC123127), gemcitabine (NSC613327), 5-fluorouracil (NSC19893), paclitaxel (NSC125973), vemurafenib (NSC761431), panobinostat (NSC761190), R-306465 (JNJ-16241199; NSC773264), adavosertib (NSC754352), TP-3654 (NSC805149), carboplatin (NSC241240), KSQ-4279 (NSC840948), and staurosporine (NSC755774) were obtained from the National Cancer Institute (NCI) Developmental Therapeutics Program Chemical Repository (34). The FDA-approved anticancer drug set is available from the NCI Developmental Therapeutics Program. […] The stock solutions were prepared in dimethyl sulfoxide (DMSO, Sigma-Aldrich, St. Louis, MO, cat. D2650) at 800-fold the tested concentration and stored at -70 degrees C prior to their use. All drugs and investigational agents were tested over a range starting from a high concentration at or near the clinical Cmax and decreasing in half-log increments. If the clinical Cmax for an agent had not been determined, the highest concentration tested was 10 microM.
2.3 Cell Culture. All cells were maintained in an incubator at 37 degrees C and 5% CO2 with 95% humidity. The PDC lines were cultured according to standard operating procedures established by the NCI PDMR. All PDCs were thawed and cultured in Matrigel-coated flasks prepared with a working solution of 1X Ham's F-12 nutrient mix, without supplementation (Invitrogen, cat. 11765054), 100 U/mL penicillin-streptomycin (Invitrogen, cat. 15140122), and 2.5% Matrigel (Corning Inc., cat. 354248) for the first three passages. The 857933-349-R-J2-PDC line was cultured in 6C/Colon 1B media, which includes advanced DMEM/F-12 (Thermo Fisher Scientific, cat. 12634028), 10 mM HEPES (Thermo Fisher Scientific, cat. 15630080), 1X GlutaMAX supplement (Thermo Fisher Scientific, cat. 35050061), 0.1 mg/mL primocin (InvivoGen, cat. ant-pm-2), 10% defined fetal bovine serum, heat inactivated (HyClone Laboratories Inc., cat. SH30070.03HI), 50% L-WRN conditioned media (ATCC, cat. CRL-3276), 1.25 mM N-Acetyl-L-cysteine (Sigma-Aldrich, cat. A9165), 10 mM nicotinamide (Sigma-Aldrich, cat. N0636), 1X B-27 supplement (Thermo Fisher Scientific, cat. 17504044), 1X N-2 supplement (Thermo Fisher Scientific, cat. 17502048), 10 microM Y-27632 dihydrochloride (Tocris Bioscience, cat. 1254), and 50 ng/mL human EGF recombinant protein (Thermo Fisher Scientific, cat. PHG0311). The 485176-168-R4-J1-PDC line was cultured in Panc media, which includes all 6C/Colon 1B media components plus 100 ng/mL human FGF-10 (Thermo Fisher Scientific, cat. 100-26), 500 nM SB-431542 (Selleckchem, cat. S1067), and gastrin (Tocris, cat. 3006).
[…]

[1] = second compound 0.0316 µM, first compound 0.0316 µM
[2] = second compound 0.0316 µM, first compound 0.1 µM
[3] = second compound 0.0316 µM, first compound 0.316 µM
[4] = second compound 0.0316 µM, first compound 1 µM
[5] = second compound 0.0316 µM, first compound 3.16 µM
[6] = second compound 0.0316 µM, first compound 10 µM
[7] = second compound 0.1 µM, first compound 0.0316 µM
[8] = second compound 0.1 µM, first compound 0.1 µM
[9] = second compound 0.1 µM, first compound 0.316 µM
[10] = second compound 0.1 µM, first compound 1 µM
[11] = second compound 0.1 µM, first compound 3.16 µM
[12] = second compound 0.1 µM, first compound 10 µM
[13] = second compound 0.316 µM, first compound 0.0316 µM
[14] = second compound 0.316 µM, first compound 0.1 µM
[15] = second compound 0.316 µM, first compound 0.316 µM
[16] = second compound 0.316 µM, first compound 1 µM
[17] = second compound 0.316 µM, first compound 3.16 µM
[18] = second compound 0.316 µM, first compound 10 µM
[19] = second compound 1 µM, first compound 0.0316 µM
[20] = second compound 1 µM, first compound 0.1 µM
[21] = second compound 1 µM, first compound 0.316 µM
[22] = second compound 1 µM, first compound 1 µM
[23] = second compound 1 µM, first compound 3.16 µM
[24] = second compound 1 µM, first compound 10 µM
[25] = second compound 3.16 µM, first compound 0.0316 µM
[26] = second compound 3.16 µM, first compound 0.1 µM
[27] = second compound 3.16 µM, first compound 0.316 µM
[28] = second compound 3.16 µM, first compound 1 µM
[29] = second compound 3.16 µM, first compound 3.16 µM
[30] = second compound 3.16 µM, first compound 10 µM
[31] = second compound 10 µM, first compound 0.0316 µM
[32] = second compound 10 µM, first compound 0.1 µM
[33] = second compound 10 µM, first compound 0.316 µM
[34] = second compound 10 µM, first compound 1 µM
[35] = second compound 10 µM, first compound 3.16 µM
[36] = second compound 10 µM, first compound 10 µM
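Further: spheroids exposed to compounds for 7 days before readout.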
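Wherever viability, T/C is given: percent of vehicle DMSO control viability with 100% = untreated-like growth.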

Structure (SMILES): CC1COCCN1c1cc(C2(O)CC3CCC(C2)O3)c2cnn(-c3ccn[nH]3)c2n1 (stereo unspecified) + CN(C)c1ccc(Nc2c3ccc(NC(=O)CCN4CCCC4)cc3nc3cc(NC(=O)CCN4CCCC4)ccc23)cc1
- IC50 (second compound 0.0316 µM): 0.73 µM
- IC50 (second compound 0.1 µM): 0.425 µM
- IC50 (second compound 0.316 µM): 0.632 µM
- IC50 (second compound 1 µM): 0.649 µM
- IC50 (second compound 3.16 µM): 0.825 µM
- IC50 (second compound 10 µM): 0.734 µM
- viability, T/C [1]: 93.4%
- viability, T/C [2]: 81.5%
- viability, T/C [3]: 65.1%
- viability, T/C [4]: 44.9%
- viability, T/C [5]: 28.1%
- viability, T/C [6]: 20.9%
- viability, T/C [7]: 82.5%
- viability, T/C [8]: 87.5%
- viability, T/C [9]: 55.4%
- viability, T/C [10]: 37.3%
- viability, T/C [11]: 37.6%
- viability, T/C [12]: 22.6%
- viability, T/C [13]: 87.2%
- viability, T/C [14]: 92.6%
- viability, T/C [15]: 58.3%
- viability, T/C [16]: 42.3%
- viability, T/C [17]: 34.8%
- viability, T/C [18]: 20.6%
- viability, T/C [19]: 102%
- viability, T/C [20]: 89%
- viability, T/C [21]: 63.6%
- viability, T/C [22]: 41%
- viability, T/C [23]: 29.8%
- viability, T/C [24]: 21.5%
- viability, T/C [25]: 81.9%
- viability, T/C [26]: 81.2%
- viability, T/C [27]: 80.9%
- viability, T/C [28]: 43.7%
- viability, T/C [29]: 33.3%
- viability, T/C [30]: 23.4%
- viability, T/C [31]: 93%
- viability, T/C [32]: 72.8%
- viability, T/C [33]: 86.6%
- viability, T/C [34]: 37.5%
- viability, T/C [35]: 28.6%
- viability, T/C [36]: 21.3%

Structure (SMILES): CC1COCCN1c1cc(C2(S(C)(=N)=O)CC2)nc(-c2ccnc3[nH]ccc23)n1 (stereo unspecified) + CN(C)c1ccc(Nc2c3ccc(NC(=O)CCN4CCCC4)cc3nc3cc(NC(=O)CCN4CCCC4)ccc23)cc1
- IC50 (second compound 0.0316 µM): 8.45 µM
- IC50 (second compound 0.1 µM): 6.78 µM
- IC50 (second compound 0.316 µM): 6.09 µM
- IC50 (second compound 1 µM): > 10 µM
- IC50 (second compound 3.16 µM): > 10 µM
- IC50 (second compound 10 µM): > 10 µM
- viability, T/C [1]: 102%
- viability, T/C [2]: 90.3%
- viability, T/C [3]: 73%
- viability, T/C [4]: 79.6%
- viability, T/C [5]: 67.8%
- viability, T/C [6]: 42.2%
- viability, T/C [7]: 95.1%
- viability, T/C [8]: 77.2%
- viability, T/C [9]: 81.2%
- viability, T/C [10]: 76.5%
- viability, T/C [11]: 69.3%
- viability, T/C [12]: 40.5%
- viability, T/C [13]: 85.5%
- viability, T/C [14]: 83.3%
- viability, T/C [15]: 74.4%
- viability, T/C [16]: 76.2%
- viability, T/C [17]: 61.8%
- viability, T/C [18]: 40.8%
- viability, T/C [19]: 89.8%
- viability, T/C [20]: 83.7%
- viability, T/C [21]: 94.2%
- viability, T/C [22]: 67.6%
- viability, T/C [23]: 58.8%
- viability, T/C [24]: 46.2%
- viability, T/C [25]: 86%
- viability, T/C [26]: 89.2%
- viability, T/C [27]: 86.3%
- viability, T/C [28]: 68.5%
- viability, T/C [29]: 64.4%
- viability, T/C [30]: 49.6%
- viability, T/C [31]: 82.7%
- viability, T/C [32]: 88.4%
- viability, T/C [33]: 116%
- viability, T/C [34]: 59.7%
- viability, T/C [35]: 80%
- viability, T/C [36]: 56%

Structure (SMILES): COc1ccc([C@@H](O)c2cc(-c3ncnc4cc(N5CCOCC5)ccc34)c(F)cc2Cl)nn1 + CN(C)c1ccc(Nc2c3ccc(NC(=O)CCN4CCCC4)cc3nc3cc(NC(=O)CCN4CCCC4)ccc23)cc1
- IC50 (second compound 0.0316 µM): > 10 µM
- IC50 (second compound 0.1 µM): > 10 µM
- IC50 (second compound 0.316 µM): 9.44 µM
- IC50 (second compound 1 µM): > 10 µM
- IC50 (second compound 3.16 µM): > 10 µM
- IC50 (second compound 10 µM): > 10 µM
- viability, T/C [1]: 96.4%
- viability, T/C [2]: 92.5%
- viability, T/C [3]: 80.6%
- viability, T/C [4]: 71.3%
- viability, T/C [5]: 81.7%
- viability, T/C [6]: 64.9%
- viability, T/C [7]: 89.2%
- viability, T/C [8]: 75.3%
- viability, T/C [9]: 95%
- viability, T/C [10]: 72.8%
- viability, T/C [11]: 86.2%
- viability, T/C [12]: 60.1%
- viability, T/C [13]: 89.1%
- viability, T/C [14]: 81%
- viability, T/C [15]: 76.4%
- viability, T/C [16]: 78.2%
- viability, T/C [17]: 82.1%
- viability, T/C [18]: 48.3%
- viability, T/C [19]: 81.2%
- viability, T/C [20]: 83.2%
- viability, T/C [21]: 97.6%
- viability, T/C [22]: 62.4%
- viability, T/C [23]: 77.4%
- viability, T/C [24]: 66.6%
- viability, T/C [25]: 87.3%
- viability, T/C [26]: 83.8%
- viability, T/C [27]: 81.2%
- viability, T/C [28]: 85%
- viability, T/C [29]: 102%
- viability, T/C [30]: 61.3%
- viability, T/C [31]: 89.3%
- viability, T/C [32]: 72.6%
- viability, T/C [33]: 90.1%
- viability, T/C [34]: 74.5%
- viability, T/C [35]: 76.4%
- viability, T/C [36]: 79.4%
